Our source for the EC50 values is BindingDB's records for doi:10.1021/acsmedchemlett.0c00586 (University of Iowa, 2021).

By EC50 is commonly meant the concentration giving half of the maximal effect.

This assay in a line: Binding affinity to BTN3A1 in human PBMC-derived Vgamma9/Vdelta2 T cells assessed as induction of Vgamma9Vdelta2 T cells proliferation incubated for 3 days by gamma delta TCR/PE-CD3+ antibody staining based FACS analysis. Background: Flow cytometry measures light scatter and fluorescence of single cells or particles in a stream.
Take `C/C(C=O)=C\CCP(=O)(OCOC(=O)C(C)(C)C)Oc1ccc2ccccc2c1` (stereo not given): the concentration giving a half-maximal response (EC50) was determined as 4.6 nM. The same measure for `C/C(C=O)=C\CCP(=O)(OCOC(=O)C(C)(C)C)Oc1ccc2ccc(=O)oc2c1` (stereo not given): 12 nM; for `C/C(C=O)=C\CCP(=O)(OCOC(=O)C(C)(C)C)OCOC(=O)C(C)(C)C`: 47 nM; for `C/C(C=O)=C\CCP(=O)(NCC(=O)OC(C)C)Oc1ccccc1` (stereo not given): 49 nM. As for `CCOC(=O)CNP(=O)(CC/C=C(\C)C=O)Oc1ccccc1` (stereo not given), the EC50 is 20 nM. For `COC(=O)CNP(=O)(CC/C=C(\C)C=O)Oc1ccccc1` (stereo not given), the EC50 was 47 nM. Regarding `CCOC(=O)CNP(=O)(CC/C=C(C)/C=N/O)Oc1ccccc1` (stereo not given), the EC50 amounted to 790 nM.

In the case of `CCOC(=O)CNP(=O)(CCC=C(C)C)Oc1cccc2ccccc12` (stereo not given), the EC50 was more than 100000 nM.

In the case of `CC(C)=CCCP(=O)(O)O`, the EC50 was more than 100000 nM. `C/C(=C\CCP(=O)(OCOC(=O)C(C)(C)C)Oc1ccc2ccc(=O)oc2c1)CO` (stereo not given): the EC50 turned out to be 8 nM.
